Experimental data as given in patent US9822069B2, “Urea derivative or pharmacologically acceptable salt thereof” (KYORIN PHARMACEUTICAL CO. LTD., priority 2013, dated 2017).

Legend:
mouse (BALB/c, male) = test: Effect of lipopolysaccharide induction on neutrophilic infiltration in mouse lung; format: in vivo; conditions: neutrophil infiltration in BAL fluid, LPS-exposed BALB/c mouse, oral; for inhibition in vivo at 1 mg/kg / inhibition in vivo at 3 mg/kg: 5 h, read-out: SUPPRESSION RATIO
Experimental: Effect of Lipopolysaccharide Induction on Neutrophilic Infiltration in Mouse Lung A compound to be tested was orally administrated to a mouse (BALB/c, male), and after 30 minutes, the mouse was placed in a plastic container. Lipopolysaccharide (0.3 mg/mL) dissolved in physiological saline was aerosolized with an ultrasonic wave nebulizer (NE-U17, OMRON Corporation), and exposed to the mouse for 10 minutes. After 5 hours, the anesthetized mouse was sacrificed by exsanguination. A cannula was inserted in the respiratory tract and bronchoalveolar lavage (BAL) with 1 mL of 0.85% NaCl liquid containing 0.4% sodium citrate was carried out. This operation was repeated 3 times, to obtain a BAL fluid. The BAL fluid was centrifuged at 4° C. and ×200 g for 5 minutes, and the pellet was suspended in a physiological saline containing 0.1% BSA. The number of white blood cells was counted using Turks solution with a microscope, and the total white blood cell count was calculated. The white blood cells were fixed on a glass slide using Cytospin 3 (Thermo BioAnalysis Japan K. K.). The cells were stained with Diff-Quik (SYSMEX INTERNATIONAL REAGENTS CO., LTD.), and the number thereof was counted with a microscope, and the neutrophil ratio was calculated. The neutrophil ratio was multiplied by the total white blood cell count to calculate the total neutrophil count. An effect of the compound to be tested represents a percentage (%) of suppression ratio relative to the neutrophil count in a control.

human FPRL1 = target: T1, human FPRL1 (Homo sapiens, UniProt P25090); test: Measurement test of agonist activity on human FPRL1 (test of calcium mobilization in cell, HEK293 with human FPRL1 and Gα15 expression vectors); format: cell-based; conditions: calcium mobilization in HEK293 cells with human FPRL1 and Gα15 expression vectors
T1 construct: expressed in transfected cells; host or cells: HEK293 (JCRB9068, NIBIO), transient transfection with pCMV-script vectors using Lipofectamine 2000
T1 sequence (P25090 1-351): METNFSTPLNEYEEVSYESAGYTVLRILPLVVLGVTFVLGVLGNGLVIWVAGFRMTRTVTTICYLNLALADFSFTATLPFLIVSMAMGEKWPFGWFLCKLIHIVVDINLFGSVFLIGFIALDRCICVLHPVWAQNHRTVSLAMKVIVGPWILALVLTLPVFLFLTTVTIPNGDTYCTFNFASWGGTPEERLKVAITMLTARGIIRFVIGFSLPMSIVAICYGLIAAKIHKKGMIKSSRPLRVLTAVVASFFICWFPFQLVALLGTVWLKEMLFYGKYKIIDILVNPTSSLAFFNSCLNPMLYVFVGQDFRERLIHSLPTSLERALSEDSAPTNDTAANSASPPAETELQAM
Procedure, shortened: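 HEK293 transiently co-transfected with human FPRL1 and Gα15, plated 24 h before assay, loaded with Fluo-4 NW dye plus probenecid. Compounds in eight 10-fold dilutions (DMSO stocks 10^−2 to 10^−9 M, then diluted 100-fold in assay buffer); calcium mobilization read on Flexstation for EC50.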

SMILES | EC50 (human FPRL1) [pM] | other results
COc1ccc([C@@H]2CNC(=O)C2NC(=O)Nc2ccc(Cl)cc2)cc1 (mixture of isomers) [Example 1-53, (±)-trans-1-(4-chlorophenyl)-3-[4-(4-methoxyphenyl)-2-oxopyrrolidin-3-yl]urea] | 180 | inhibition in vivo at 1 mg/kg (mouse (BALB/c, male); dose 1 mg/kg): 78.9%
COc1ccc([C@@H]2CNC(=O)C2NC(=O)Nc2ccc(F)cc2)cc1 (mixture of isomers) [Example 1-54, (±)-trans-1-(4-fluorophenyl)-3-[4-(4-methoxyphenyl)-2-oxopyrrolidin-3-yl]urea] | 110 | inhibition in vivo at 3 mg/kg (mouse (BALB/c, male); dose 3 mg/kg): 98.6%
COc1ccc([C@@H]2CN(C)C(=O)C2NC(=O)Nc2ccc(Cl)cc2)cc1 (mixture of isomers) [Example 1-55, (±)-trans-1-(4-chlorophenyl)-3-[4-(4-methoxyphenyl)-1-methyl-2-oxopyrrolidin-3-yl]urea] | 1020 | inhibition in vivo at 3 mg/kg (mouse (BALB/c, male); dose 3 mg/kg): 83.7%
COc1ccc([C@@H]2CN(C)C(=O)[C@H]2NC(=O)Nc2ccc(F)cc2)cc1 (relative stereo) [EXAMPLE 1-7, 1-(4-fluorophenyl)-3-[(3S*,4R*)-4-(4-methoxyphenyl)-1-methyl-2-oxopyrrolidin-3-yl]urea] | 220 | inhibition in vivo at 1 mg/kg (mouse (BALB/c, male); dose 1 mg/kg): 96.9%
COc1cc(F)c([C@@H]2CNC(=O)[C@H]2NC(=O)Nc2ccc(Cl)nc2)c(F)c1 (relative stereo) [Example 1-31, (−)-1-(6-chloropyridin-3-yl)-3-[(3S*,4R*)-4-(2,6-difluoro-4-methoxyphenyl)-2-oxopyrrolidin-3-yl]urea] | 2670 | inhibition in vivo at 1 mg/kg (mouse (BALB/c, male); dose 1 mg/kg): 69.7%
COc1cc(F)c([C@@H]2CNC(=O)[C@H]2NC(=O)Nc2ccc(C)c(O)c2)c(F)c1 (relative stereo) [Example 1-68, (−)-1-[(3S*,4R*)-4-(2,6-difluoro-4-methoxyphenyl)-2-oxopyrrolidin-3-yl]-3-(3-hydroxy-4-methyl)phenyl)urea] | 80 | SUPPRESSION RATIO (%) (mouse (BALB/c, male); dose 3 mg/kg): 85.6%
COc1cc(F)c([C@@H]2CNC(=O)[C@H]2NC(=O)Nc2ccc(F)c(O)c2)c(F)c1 (relative stereo) [Example 1-71, (−)-1-[(3S*,4R*)-4-(2,6-difluoro-4-methoxyphenyl)-2-oxopyrrolidin-3-yl]-3-(4-fluoro-3-hydroxyphenyl)urea] | 90 | SUPPRESSION RATIO (%) (mouse (BALB/c, male); dose 3 mg/kg): 79.7%
COc1cc(F)c([C@@H]2CNC(=O)[C@H]2NC(=O)Nc2ccc(Cl)c(O)c2)c(F)c1 (relative stereo) [Example 1-72, (−)-1-(4-chloro-3-hydroxyphenyl)-3-[(3S*,4R*)-4-(2,6-difluoro-4-methoxyphenyl)-2-oxopyrrolidin-3-yl]urea] | 50 | SUPPRESSION RATIO (%) (mouse (BALB/c, male); dose 3 mg/kg): 93.3%
N#Cc1ccc(NC(=O)N[C@@H]2C(=O)NC[C@H]2c2cc3c(cc2F)OCC3)cc1 (relative stereo) [Example 1-84, (−)-1-(4-cyanophenyl)-3-[(3S*,4R*)-4-(6-fluoro-2,3-dihydrobenzofuran-5-yl)-2-oxopyrrolidin-3-yl]urea] | 1920 | SUPPRESSION RATIO (%) (mouse (BALB/c, male); dose 1 mg/kg): 99.2%
COc1cc(F)c([C@@H]2CNC(=O)[C@H]2NC(=O)Nc2ccccc2)c(F)c1 (relative stereo) [Example 7-2, (−)-1-[(3S*,4R*)-4-(2,6-difluoro-4-methoxyphenyl)-2-oxopyrrolidin-3-yl]-3-phenylurea] | 450 | SUPPRESSION RATIO (%) (mouse (BALB/c, male); dose 1 mg/kg): 87.7%
COc1ccc([C@@H]2CNC(=O)[C@H]2NC(=O)Nc2ccc(F)cc2)cc1 (single isomer, unassigned) [EXAMPLE 1-1, (−)-1-(4-Fluorophenyl)-3-[(3S*,4R*)-4-(4-methoxyphenyl)-2-oxopyrrolidin-3-yl]urea] | 90 | inhibition in vivo at 1 mg/kg (mouse (BALB/c, male); dose 1 mg/kg): 95.1%
COc1ccc([C@@H]2CNC(=O)[C@H]2NC(=O)Nc2ccc(Cl)cc2)cc1 (single isomer, unassigned) [EXAMPLE 1-2, (-)-1-(4-chlorophenyl)-3-[(3S*,4R*)-4-(4-methoxyphenyl)-2-oxopyrrolidin-3-yl]urea] | 90 | inhibition in vivo at 1 mg/kg (mouse (BALB/c, male); dose 1 mg/kg): 99.2%
COc1ccc([C@@H]2CN(CCO)C(=O)[C@H]2NC(=O)Nc2ccc(Cl)cc2)cc1 (single isomer, unassigned) [Example 15-1B, (+)-trans-1-(4-Chlorophenyl)-3-[1-(2-hydroxyethyl)-4-(4-methoxyphenyl)-2-oxopyrrolidin-3-yl]urea] | 1990 | –

Second part, led by results:

EC50 (human FPRL1) [pM] | SMILES | other results
860 | COc1cc(F)c([C@@H]2CNC(=O)[C@H]2NC(=O)Nc2ccc(C)cc2)c(F)c1 (relative stereo) [Example 9-1, (−)-1-[(3S*,4R*)-4-(2,6-Difluoro-4-methoxyphenyl)-2-oxopyrrolidin-3-yl]-3-(p-tolyl)urea] | SUPPRESSION RATIO (%) (mouse (BALB/c, male); dose 3 mg/kg): 57.0%
130 | CCN1C[C@@H](c2ccc(OC)cc2)[C@H](NC(=O)Nc2ccc(F)cc2)C1=O (relative stereo) [Example 12-1, (−)-1-[(3S*,4R*)-1-Ethyl-4-(4-methoxyphenyl)-2-oxopyrrolidin-3-yl]-3-(4-fluorophenyl) urea] | inhibition in vivo at 3 mg/kg (mouse (BALB/c, male); dose 3 mg/kg): 97.4%
900 | COc1ccc(C2CNC(=O)C2NC(=O)Nc2ccc(Cl)cc2)cc1 (single isomer, unassigned; (+)) [Example 12-12, (+)-1-(4-chlorophenyl)-3-[4-(4-methoxyphenyl)-2-oxopyrrolidin-3-yl]urea] | –
4570 | COc1ccc(C2CNC(=O)C2NC(=O)Nc2ccc(Cl)cc2)cc1 (single isomer, unassigned; (-)) [Example 12-11, (−)-1-(4-chlorophenyl)-3-[4-(4-methoxyphenyl)-2-oxopyrrolidin-3-yl]urea] | –
2360 | COc1ccc([C@@H]2CN(C(C)C(=O)O)C(=O)[C@H]2NC(=O)Nc2ccc(F)cc2)cc1 (single isomer, unassigned; isomer a) [Example 18-1, (−)-2-{(3S*,4R*)-3-[3-(4-Fluorophenyl)ureido]-4-(4-methoxyphenyl)-2-oxopyrrolidin-1-yl}propionic acid (isomer A)] | –
210 | CNC(=O)C(C)N1C[C@@H](c2ccc(OC)cc2)[C@H](NC(=O)Nc2ccc(F)cc2)C1=O (single isomer, unassigned; isomer a) [Example 19-1, (−)-2-{(3S*,4R*)-3-[3-(4-Fluorophenyl)ureido]-4-(4-methoxyphenyl)-2-oxopyrrolidin-1-yl}-N-methylpropionamide (isomer A)] | –
470 | COc1ccc([C@@H]2CN(C(C)C(=O)O)C(=O)[C@H]2NC(=O)Nc2ccc(F)cc2)cc1 (single isomer, unassigned; isomer b) [Example 20-1, (−)-2-{(3S*,4R*)-3-[3-(4-Fluorophenyl)ureido]-4-(4-methoxyphenyl)-2-oxopyrrolidin-1-yl}propionic acid (isomer B)] | –
40 | CNC(=O)C(C)N1C[C@@H](c2ccc(OC)cc2)[C@H](NC(=O)Nc2ccc(F)cc2)C1=O (single isomer, unassigned; isomer b) [Example 21-1, (−)-2-{(3S*,4R*)-3-[3-(4-Fluorophenyl)ureido]-4-(4-methoxyphenyl)-2-oxopyrrolidin-1-yl}-N-methylpropionamide (isomer B)] | –
2860 | CCOC(=O)CC/N=C1\NC[C@@H](c2c(F)cc(OC)cc2F)[C@@H]1NC(=O)Nc1ccc(F)cc1 [EXAMPLE 32-20, 3-((Z)-{(3S,4R)-4-(2,6-difluoro-4-methoxyphenyl)-3-[3-(4-fluorophenyl)ureido]pyrrolidin-2-ylidene}amino) propanoic acid ethyl ester] | –
1120 | COc1ccc(C2CNC(=O)C2NC(=O)Nc2ccc(F)cc2)cc1 (stereo not drawn) [Example 12-13, (+)-1-(4-fluorophenyl)-3-[4-(4-methoxyphenyl)-2-oxopyrrolidin-3-yl]urea] | –
430 | COc1ccc(C2CN(CCO)C(=O)C2NC(=O)Nc2ccc(F)cc2)cc1 (stereo not drawn) [Example 12-15, (+)-1-(4-fluorophenyl)-3-[1-(2-hydroxyethyl)-4-(4-methoxyphenyl)-2-oxopyrrolidin-3-yl]urea] | –
